Experimental data published in the supplement of paper PMC10011410.
± gives the standard deviation of the averaged measurements.

What was measured:
U-2 OS [1] = assay: cell painting activity score (Mahalanobis distance from DMSO wells); higher = stronger morphological phenotype; settings: 24 h
How it was run: (§1)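 Cell painting used U-2 OS cells at about 1,500 per well in 384-well plates, treated by pin tool for 24 h at 37 °C, usually at six 2-fold concentrations from 20 μM to 625 nM. Cells were stained with MitoTracker, concanavalin A, phalloidin, wheat germ agglutinin, Hoechst and SYTO 14 and imaged on an Opera Phenix. Features were extracted with CellProfiler and normalized to DMSO cells on the same plate. The activity score is the Mahalanobis distance from DMSO wells; cell count is relative to DMSO wells. Values are means of four replicate plates.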

U-2 OS [2] = assay: AUC of culture confluence over time (live-cell imaging) (AUC (confluence % x time)); higher = more confluent culture (less growth inhibition)
Description: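 Live-cell Incucyte imaging of U-2 OS cells in F-12K medium. Compounds were tested mostly at 5, 10 and 20 uM, and cells were imaged every 4 h for up to 60 h. Value is the area under the curve of phase-contrast confluence over time.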

U-2 OS [3] = assay: relative cell count vs DMSO (cell painting) (fraction of DMSO control); higher = more cells remaining (less cytotoxic); settings: 24 h
How it was run: as §1

U-2 OS [4] = assay: cell viability (CellTiter-Glo) relative to DMSO (% of control); higher = more viable; settings: 24 h
Description: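 Cell viability of U-2 OS cells by CellTiter-Glo after 24 h compound treatment at 5, 10 and 20 uM (some at 40 and 80 uM), measured in parallel with the glutathione assay, as percent of DMSO control. Five technical replicate plates, averaged.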

U-2 OS [5] = assay: intracellular GSH:GSSG ratio (calculated); higher = more reduced glutathione pool; settings: 24 h
Description: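 Intracellular glutathione in U-2 OS cells after 24 h compound treatment at 5, 10 and 20 uM (some at 40 and 80 uM). Total glutathione and GSSG were measured with the GSH/GSSG-Glo kit, and the GSH:GSSG ratio was calculated. Mean of five technical replicate plates.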

Row | SMILES | cell painting activity score (U-2 OS [1]; 0.625 µM) | cell painting activity score (U-2 OS [1]; 1.25 µM) | cell painting activity score (U-2 OS [1]; 2.5 µM) | cell painting activity score (U-2 OS [1]; 5 µM) | cell painting activity score (U-2 OS [1]; 10 µM) | cell painting activity score (U-2 OS [1]; 20 µM) | AUC of culture confluence over time (U-2 OS [2]; 5 µM) | AUC of culture confluence over time (U-2 OS [2]; 10 µM) | AUC of culture confluence over time (U-2 OS [2]; 20 µM) | relative cell count (U-2 OS [3]; 0.625 µM) | relative cell count (U-2 OS [3]; 1.25 µM) | relative cell count (U-2 OS [3]; 2.5 µM) | relative cell count (U-2 OS [3]; 5 µM) | relative cell count (U-2 OS [3]; 10 µM) | relative cell count (U-2 OS [3]; 20 µM) | cell viability (U-2 OS [4]; 5 µM) | cell viability (U-2 OS [4]; 10 µM) | cell viability (U-2 OS [4]; 20 µM) | cell viability (U-2 OS [4]; 40 µM) | cell viability (U-2 OS [4]; 80 µM) | cell painting activity score (U-2 OS [1]; 40 µM) | cell painting activity score (U-2 OS [1]; 80 µM) | AUC of culture confluence over time (U-2 OS [2]; 40 µM) | AUC of culture confluence over time (U-2 OS [2]; 80 µM) | relative cell count (U-2 OS [3]; 40 µM) | relative cell count (U-2 OS [3]; 80 µM) | intracellular GSH:GSSG ratio (U-2 OS [5]; 5 µM) | intracellular GSH:GSSG ratio (U-2 OS [5]; 10 µM) | intracellular GSH:GSSG ratio (U-2 OS [5]; 20 µM) | intracellular GSH:GSSG ratio (U-2 OS [5]; 40 µM) | intracellular GSH:GSSG ratio (U-2 OS [5]; 80 µM)
1 | C[C@H]1O[C@@H](O[C@H]2CC[C@@]3(C)[C@@H](CC[C@]4(C)[C@@H]3C=C[C@]35OC[C@@]6(CCC(C)(C)C[C@H]63)[C@@H](O)C[C@]54C)[C@]2(C)CO)[C@H](O)[C@@H](O[C@@H]2O[C@H](CO)[C@@H](O)[C@H](O)[C@H]2O)[C@H]1O | 5.15 | 6.79 | 10.6 | 9.69 | 27.5 | 29.4 | 35.7 | 16.7 | 15.5 | 0.96 | 0.765 | 0.155 | 0.3 | 0.0734 | 0.0918 | – | – | – | – | – | – | – | – | – | – | – | – | – | – | – | –
2 | O=c1c(O)c(-c2ccc(O)c(O)c2)oc2cc(O)ccc12 | 5.44 | 5.04 | 4.93 | 4.23 | 4.83 | 7.46 | 52.8 | 52 | 47.7 | 0.969 | 0.938 | 0.943 | 0.939 | 0.932 | 0.945 | – | – | – | – | – | – | – | – | – | – | – | – | – | – | – | –
3 | COc1cc([C@@H]2c3cc4c(cc3[C@H](O)[C@H]3COC(=O)[C@H]23)OCO4)cc(OC)c1OC | 23.6 | 24.1 | 23.9 | 21 | 21 | 22 | 15.2 | 15.6 | 20.8 | 0.209 | 0.195 | 0.195 | 0.199 | 0.187 | 0.179 | – | – | – | – | – | – | – | – | – | – | – | – | – | – | – | –
4 | Cc1ccc(C(=O)N(CCCN)[C@@H](c2oc3cc(Cl)ccc3c(=O)c2Cc2ccccc2)C(C)C)cc1.Cl | 13.7 | 13 | 14 | 13.6 | 25.2 | 22 | 20.2 | 15.1 | 11.9 | 0.217 | 0.248 | 0.234 | 0.222 | 0.0425 | 0.029 | – | – | – | – | – | – | – | – | – | – | – | – | – | – | – | –
5 | Oc1cc(O)cc(/C=C/c2ccc(O)c(O)c2)c1 | 3.37 | 3.39 | 4.93 | 8.04 | 10.9 | 13.7 | 49.3 | 53.9 | 45.4 | 1.06 | 1.01 | 0.995 | 0.951 | 0.958 | 0.886 | – | – | – | – | – | – | – | – | – | – | – | – | – | – | – | –
6 | Cc1csc(=NC2CCCCC2)n1/N=C/c1ccc(O)c(O)c1O | 6.78 | 7.67 | 6 | 5.67 | 5.75 | 7.13 | 49.7 | 53.9 | 40.5 | 1.01 | 1.01 | 0.985 | 1 | 1.02 | 0.405 | – | – | – | – | – | – | – | – | – | – | – | – | – | – | – | –
7 | Nc1ncn([C@H]2C[C@H](O)[C@@H](CO)O2)c(=O)n1 | 6.05 | 6.95 | 6.26 | 6.61 | 5.82 | 5.8 | 45.9 | 35.4 | 37.9 | 0.973 | 0.985 | 0.966 | 0.935 | 0.915 | 0.918 | – | – | – | – | – | – | – | – | – | – | – | – | – | – | – | –
8 | CCN(CC)Cc1ccc2cc(COC(=O)Nc3ccc(C(=O)NO)cc3)ccc2c1.Cl | 16.1 | 14.9 | 15 | 15.6 | 16 | 16.9 | 16.5 | 20 | 18.5 | 0.781 | 0.654 | 0.491 | 0.424 | 0.403 | 0.373 | – | – | – | – | – | – | – | – | – | – | – | – | – | – | – | –
9 | Nc1c[n+](N2CCOCC2)no1.[Cl-] | 6.05 | 6.1 | 9.31 | 10.9 | 12.9 | 15.2 | 49.4 | 49.9 | 48.7 | 0.896 | 0.814 | 0.739 | 0.578 | 0.503 | 0.489 | – | – | – | – | – | – | – | – | – | – | – | – | – | – | – | –
10 | CCc1c2c(nc3ccc(OC(=O)N4CCC(N5CCCCC5)CC4)cc13)-c1cc3c(c(=O)n1C2)COC(=O)[C@]3(O)CC.Cl | 7.03 | 8.8 | 9.65 | 10.7 | 11 | 11.2 | 31.5 | 25.7 | 22 | 0.924 | 0.783 | 0.705 | 0.614 | 0.554 | 0.566 | – | – | – | – | – | – | – | – | – | – | – | – | – | – | – | –
11 | CCN(CCO)CCCOc1ccc2c(Nc3cc(CC(=O)Nc4cccc(F)c4)[nH]n3)ncnc2c1 | 14.3 | 14.4 | 14.3 | 14.3 | 14.5 | 14.9 | 30.4 | 32.1 | 29.6 | 0.771 | 0.757 | 0.76 | 0.8 | 0.788 | 0.757 | – | – | – | – | – | – | – | – | – | – | – | – | – | – | – | –
12 | CN1CCN(CCOc2cc(OC3CCOCC3)c3c(Nc4c(Cl)ccc5c4OCO5)ncnc3c2)CC1 | 8.87 | 8.9 | 9.68 | 9.8 | 10.5 | 11.3 | 39.5 | 33.5 | 34.5 | 0.997 | 0.953 | 0.993 | 0.997 | 0.991 | 0.933 | – | – | – | – | – | – | – | – | – | – | – | – | – | – | – | –
13 | C[C@@H]1Cc2c(Cl)cc(C(=O)N[C@@H](Cc3ccccc3)C(=O)O)c(O)c2C(=O)O1 | 3.03 | 4 | 4.76 | 5.78 | 10.6 | 16.6 | 40.8 | 30.3 | 17.7 | 1 | 0.998 | 0.979 | 0.954 | 0.805 | 0.503 | – | – | – | – | – | – | – | – | – | – | – | – | – | – | – | –
14 | COc1cc(/C=C/c2cc(/C=C/c3ccc(O)c(OC)c3)n(-c3ccc(C(=O)[O-])cc3)n2)ccc1O.[Na+] | 7.1 | 4.98 | 6.19 | 4.45 | 6.38 | 6.87 | 45.1 | 42.2 | 42.1 | 1.04 | 1.08 | 1.05 | 1.07 | 1.09 | 1.05 | 101 ± 2.3 | 95.6 ± 2.5 | 93.6 ± 3.2 | 89.6 ± 3.4 | 68.4 ± 3.8 | 5.98 | 9 | 27.3 | 25.3 | 0.866 | 0.789 | 40 | 33 | 36.1 | 30.8 | 11.8
15 | Nc1nccc2c1ncn2[C@@H]1C=C(CO)[C@@H](O)[C@H]1O | 18.6 | 18.8 | 26.9 | 28 | 26.4 | 26.2 | 36.9 | 32.7 | 34.3 | 0.949 | 0.964 | 0.944 | 0.938 | 0.941 | 0.94 | – | – | – | – | – | – | – | – | – | – | – | – | – | – | – | –
16 | ClC1=CC=C(C2=CSC(N/N=C3CCCC/3)=N2)C=C1 | 3.41 | 3.02 | 4.44 | 4.27 | 4.6 | 7.83 | – | – | – | 1.01 | 1.04 | 0.973 | 1 | 0.97 | 0.882 | – | – | – | – | – | 10 | 11 | 39.7 | 41.8 | 0.758 | 0.766 | – | – | – | – | –
17 | CCCCCCCCCCCC1=C(O)C(=O)C=C(O)C1=O | 4.78 | 4.55 | 7.31 | 4.7 | 8.2 | 25 | – | – | – | 0.898 | 0.848 | 0.944 | 0.907 | 0.478 | 0.08 | 102 ± 5.8 | 97.6 ± 2.5 | 98.7 ± 5.4 | 70.1 ± 25 | 93.3 ± 4.2 | 22.2 | 21.8 | – | – | 0.237 | 0.332 | 32.2 | 27.4 | 35.5 | 15.8 | 31.4
